Measurements as given in patent US20150057261A1, “AZETIDINE DERIVATIVES AS SPHINGOSINE-1 PHOSPHATE RECEPTORS MODULATORS” (Allergan, Inc., priority 2013, published 2015).

molecular target: T1, human S1P1 receptor (Homo sapiens, UniProt P21453); assay: GTP γ35S binding assay for S1P1 activity; type: biochemical; settings: membranes of cells stably expressing the S1P1 receptor
T1 construct: expressed in transfected cells; membranes used
Description: Compounds were synthesized and tested for S1P1 activity using the GTP γ^35S binding assay. These compounds may be assessed for their ability to activate or block activation of the human S1P1 receptor in cells stably expressing the S1P1 receptor.
GTP γ^35S binding was measured in the medium containing (mM) HEPES 25, pH 7.4, MgCl2 10, NaCl 100, dithiothreitol 0.5, digitonin 0.003%, 0.2 nM GTP γ^35S, and 5 μg membrane protein in a volume of 150 μl. Test compounds were included in the concentration range from 0.08 to 5,000 nM unless indicated otherwise. Membranes were incubated with 100 μM 5′-adenylylimidodiphosphate for 30 min, and subsequently with 10 μM GDP for 10 min on ice. Drug solutions and membrane were mixed, and then reactions were initiated by adding GTP γ^35S and continued for 30 min at 25° C. Reaction mixtures were filtered over Whatman GF/B filters under vacuum, and washed three times with 3 mL of ice-cold buffer (HEPES 25, pH7.4, MgCl2 10 and NaCl 100). Filters were dried and mixed with scintillant, and counted for ^35S activity using a β-counter. Agonist-induced GTP γ^35S binding was obtained by subtracting that in the absence of agonist. Binding data were analyzed using a non-linear regression method. In case of antagonist assay, the reaction mixture contained 10 nM […] in the presence of test antagonist at concentrations ranging from 0.08 to 5000 nM.

T1 sequence (P21453 whole entry): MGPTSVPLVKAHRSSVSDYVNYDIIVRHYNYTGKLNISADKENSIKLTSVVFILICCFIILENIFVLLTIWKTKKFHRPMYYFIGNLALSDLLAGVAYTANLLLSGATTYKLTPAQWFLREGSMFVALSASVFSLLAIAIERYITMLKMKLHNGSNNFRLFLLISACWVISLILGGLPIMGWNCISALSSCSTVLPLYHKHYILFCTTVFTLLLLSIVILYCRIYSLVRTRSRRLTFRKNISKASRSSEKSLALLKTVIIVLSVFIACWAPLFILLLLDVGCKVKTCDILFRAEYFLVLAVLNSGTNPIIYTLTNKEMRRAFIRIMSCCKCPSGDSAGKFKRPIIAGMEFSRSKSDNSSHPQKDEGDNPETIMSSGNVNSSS

EC50 [nM] | SMILES
64.5 | Cc1ccc(CC(CCCCc2ccc(CN3CC(C(=O)O)C3)cc2)c2cccc(Cl)c2)cc1C (stereo not drawn) [Compound 1, 1-{4-[5-(3-Chlorophenyl)-6-(3,4-dimethylphenyl)hexyl]benzyl}azetidine-3-carboxylic acid]
17.1 | Cc1ccc(CC(CCCc2ccc(CN3CC(C(=O)O)C3)cc2)c2cccc(Cl)c2)cc1C (stereo not drawn) [Compound 2, 1-{4-[4-(3-Chlorophenyl)-5-(3,4-dimethylphenyl)pentyl]benzyl}azetidine-3-carboxylic acid]
7.33 | Cc1ccc(CC(CCCCc2ccc(CN3CC(C(=O)O)C3)cc2)c2cc(F)cc(F)c2)cc1C (stereo not drawn) [Compound 3, 1-{4-[5-(3,5-Difluorophenyl)-6-(3,4-dimethylphenyl)hexyl]benzyl}azetidine-3-carboxylic acid]
